{
  "source": "paper PMC8086157",
  "about": "“Cryo-EM structure of a thermostable bacterial nanocompartment” (IUCrJ, 2021)",
  "target": "T1, T. maritima encapsulin (TmEnc) (Thermotoga maritima, UniProt Q9WZP2)",
  "T1 construct": "gene enc; codon-optimized gene in pET-11a, E. coli Rosetta2 (DE3); no tag mentioned; icosahedral shell without cargo protein; flavin site formed by three subunits",
  "T1 sequence (Q9WZP2 1-265)": "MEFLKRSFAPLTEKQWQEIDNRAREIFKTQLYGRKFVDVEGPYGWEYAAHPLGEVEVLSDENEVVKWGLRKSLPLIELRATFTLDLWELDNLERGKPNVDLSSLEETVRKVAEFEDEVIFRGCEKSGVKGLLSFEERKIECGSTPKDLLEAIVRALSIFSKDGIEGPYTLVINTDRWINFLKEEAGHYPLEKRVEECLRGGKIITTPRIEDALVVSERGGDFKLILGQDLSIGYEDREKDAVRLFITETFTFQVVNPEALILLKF",
  "test": "cryo-EM structure ([…] Å)",
  "type": "binding",
  "details": "co-purified from E. coli lysate through 80°C step; exact flavin identity ambiguous, FMN modelled; exterior site near threefold axis, stacks on Trp87; Tris pH 8.0, 150 mM NaCl",
  "data": [
    {"compound": "Cc1cc2nc3c(=O)[nH]c(=O)nc-3n(C[C@H](O)[C@H](O)[C@H](O)COP(=O)(O)O)c2cc1C", "note": "[flavin mononucleotide]", "values": [
      {"measurement": "cryo-EM structure (2.0 Å)", "result": "flavin mononucleotide (FMN) seems to be consistent with the density and has been modeled"}
    ]}
  ]
}
